Data published in patent US7842683B2, “Neurotherapeutic compositions and method” (Revaax Pharmaceuticals, LLC, priority 1999, dated 2010).

Columns and labels:
[1] = system: golden hamsters; experiment: Seed finding model of anxiety; format: in vivo, Syrian golden hamsters (Mesocricetus auratus)
Source text: Clavulanic acid (CLAV) is structurally similar to the beta-lactam antibiotics. A most robust and simple bioassay for screening beta-lactams for CNS activity is the golden hamster seed finding model of anxiety. Briefly, hamsters are deprived of food overnight. The following day they are exposed to the additional stress of being taken from their home cage and placed in a novel environment for a few minutes. This manipulation stimulates the release of the stress hormone cortisol (FIG. 37). During their absence from the home cage, sunflower seeds are hidden under the bedding in one of the corners. When returned to the home cage, hamsters routinely scramble along the walls for 1-2 min before settling down, locating and eating the seeds. However, animals treated with the benzodiazepine anxiolytic chlordiazepoxide find seeds in less than 10 sec.
Male, Syrian golden hamsters (Mesocricetus auratus) (120-130 g) obtained from Harlan Sprague-Dawley Laboratories (Indianapolis, Ind.) were housed individually in Plexiglas cages (24 cm×24 cm×20 cm), maintained on a reverse light:dark cycle (14L:10D; lights on at 19:00 hr) and provided food and water ad libitum. A range of concentrations of CLAV (saline vehicle, 0.1, 1.0, 10, 100 1,000 ng/kg) were tested in six groups of hamsters (4-8/group)(FIG. 25). All tests were conducted during the dark phase of the circadian cycle under dim red illumination. Prior to testing all animals were fasted for 20-24 hrs. Ninety min after intraperitoneal (IP) injection of drug, animals were taken from their home cage and placed into a holding cage for 2 min. During their absence, six sunflower seeds were buried under the bedding in one corner of their home cage. Animals were placed back into their home cage randomly facing any one of the empty corners and timed for their latency to find the seeds in a five min observation period. Latency times were analyzed with a one-way ANOVA followed by Scheffe's post hoc tests. Assumption of equal variances was tested (Hartley's F-max=2.1 p>0.05)
It was hypothesized that CLAV functioned as an anxiolytic in the seed finding assay by blocking NAALADase activity in the brain. If this notion were true then it would be predicted that drugs known to block NAALADase should also enhance seed finding. To this end, animals were treated with N-acetyl-beta-aspartyl-glutamic acid (beta-NAAG), a competitive inhibitor of NAALADase (Serval et al., 1992) and tested in the seed finding model of anxiety. The study was similar to that outlined in Section I with one notable exception. […] Beta-NAAG (FW 304) was given in a dose of 3 ng in a volume of 1 μl saline ICV. The average adult hamster brain weights ca. 1.2 g of which 22% is extracellular fluid. The estimated beta-NAAG concentration was 11 ng/ml or 36 nM.
Two groups of six animals each were fasted overnight as previously described and tested the following day. One group was treated with beta-NAAG and the other saline vehicle and one hr later timed for latency to find the hidden sunflower seeds. A Student t-test for unpaired data was used for statistical comparisons.

[2] = system: rats; experiment: Morris water maze, spatial navigation; format: in vivo, rat
Source text: The Morris water maze like the radial arm maze was developed to test spatial memory (Morris, 1984). The pool is divided into quadrants usually designated North, South, East and West. The water in the pool is made opaque with milk powder. Hidden just beneath the surface in one of the quadrants is a platform that serves as a escape route for rodents placed into the pool. An animal is placed some where in the pool from a variety of different start points and is timed for latency to find the platform, percent time spent in each quadrant, distance traveled and swimming speed. The animals has no visual or spatial cues in the pool and must rely on extra-maze cues, i.e., objects set up outside the pool that can be seen by the swimming animal. Through a series of trials a rat develops “place learning” or knowledge about the position of the platform based upon the extra-maze cues. The platform can be moved to a different quadrant each day combining spatial memory with working memory. This paradigm involves extinction of the prior memory and resolution of a new spatial problem.
The water maze consisted of a black plastic circular pool ca. 150 cm in diameter and 54 cm in height filled to a level of 35 cm with water made opaque with powdered milk. The pool was divided into four quadrants with a platform 10 cm in diameter submerged 2 cm below the surface in the northwest quadrant. The water was maintained at a temperature of 25° C. Around the pool were several visual cues. Above the pool was a video camera for tracking the movement of the experimental animal. The data collection was completely automated using the software developed by HVS Image (Hampton, UK). Before testing, rats were familiarized with the pool and platform placed in the northwest quadrant. Each day for 4 consecutive days, animals were placed into pool at random sites and given two min to find the platform. Animals were treated one hr before testing with 50 μg/kg Mox (n=11) or vehicle (n=10). Following these familiarization trials, animals were tested for spatial navigation. The first day of testing began with the platform in the expected northwest quadrant. All behavior was videotaped for a two min observation period. After testing the animal were dried off and placed back into their home cage. On each subsequent day the platform was moved to a new quadrant and the rat started at different positions. The rat was always placed into the pool facing the side wall. The start positions relative to the platform were different for each of the four trials; however, the platform was always in the same relative position in each quadrant. Twenty cm in from the side of the pool and in the left corner from the center facing out.
The Morris water maze was developed to test spatial memory (Morris, 1984). The pool is divided into quadrants usually designated North, South, East and West. The water in the pool is made opaque with milk powder. Hidden just beneath the surface in one of the quadrants is a platform that serves as a escape route for rodents placed into the pool. An animal is placed some where in the pool from a variety of different start points and is timed for latency to find the platform, percent time spent in each quadrant, distance traveled and swimming speed. The animals have no visual or spatial cues in the pool and must rely on extra-maze cues, i.e., objects set up outside the pool that can be seen by the swimming animal. Through a series of trials a rat develops “place learning” or knowledge about the position of the platform based upon the extra-maze cues. The platform can be moved to a different quadrant each day combining spatial memory with working memory. This paradigm involves extinction of the prior memory and resolution of a new spatial problem.
The water maze consisted of a black plastic circular pool ca. 150 cm in diameter and 54 cm in height filled to a level of 35 cm with water made opaque with powdered milk. […]

[3] = system: hamsters; experiment: Motor activity in an open field (hamsters); format: in vivo, Syrian golden hamsters (Mesocricetus auratus); conditions: 50 μg/kg, 90 min after injection
Protocol: Six animals were tested for general motor activity in an “open field” following treatment with saline vehicle or 50 μg/kg Mox (FIG. 5). The study was counter balanced with each animal receiving each treatment. Ninety minutes after injection a single animal was placed into a large clean Plexiglas cage (48×32×40 cm) devoid of any bedding. This open field was delineated into equal quadrants by tape on the underside of the cage. Animals were scored for motor activity by counting the number of quadrants traversed in 1 min.

[4] = system: bacteria; conditions: cited from earlier work
[5] = approximately 7-10 mg/kg/day, intravenous as TIMENTIN; cited from earlier work

| Compound | change in seed finding time ([1]; dose not given) | distance covered to reach the platform ([2]; Mox 50 μg/kg) | percentage of time spent in each quadrant ([2]; Mox 50 μg/kg) | swim speed ([2]; Mox 50 μg/kg) | latency to find the hidden platform ([2]; Mox 50 μg/kg one hr before testing, days two, three and four) | swim speed relative to vehicle ([2]; Mox 50 μg/kg, Day 2) | open field activity (quadrants traversed in 1 min) [3] | antibacterial activity [4] | latency to find the sunflower seeds vs vehicle ([1]; 1 ng/kg IP, 90 min) | dose with maximal efficacy in the seed finding test ([1]; IP) | latency to find the sunflower seeds ([1]; doses of 10 ng and above (up to 1,000 ng/kg) IP, 90 min) | percentage of time spent in each quadrant ([2]; CLAV 1.0 μg/kg) | swim rate ([2]; CLAV 1.0 μg/kg) | latency to find the platform, main effect ([2]; CLAV 1.0 μg/kg one hr before testing) | path length to find the platform ([2]; CLAV 1.0 μg/kg, Day 1) | time spent in the correct (South) quadrant ([2]; CLAV 1.0 μg/kg, Day 2) | latency to find the platform ([2]; CLAV 1.0 μg/kg, Days 1 and 4, trend towards significance) | adverse reactions or contraindications [5] |
| --- | --- | --- | --- | --- | --- | --- | --- | --- | --- | --- | --- | --- | --- | --- | --- | --- | --- | --- |
| CO[C@@]1(NC(=O)C(C(=O)O)c2ccc(O)cc2)C(=O)N2C(C(=O)O)=C(CSc3nnnn3C)CO[C@@H]21 (stereo partly drawn) [Mox, 7-β-[2-carboxy-2-(4-hydroxyphenyl)acetamido]-7α-methoxy-3-[[(1-methyl-1H-tetrazol-5-yl)thio]methyl]-1-oxa-1-dethia-3-cephem-4-carboxylic acid] | reduction in seed finding time from minutes to seconds | not significantly different | no significant difference between treatments | significantly greater swim speed | significantly shorter latencies | almost twice the speed | no significant difference |  |  |  |  |  |  |  |  |  |  |  |
| O=C(O)[C@H]1/C(=C/CO)O[C@@H]2CC(=O)N21 [CLAV, Clavulanic acid] |  |  |  |  |  |  |  | weak antibacterial activity | not significantly different | 10 ng/kg body weight | less than 8.0 sec | no significant difference between treatments | no significant difference | no main effect for drug treatment | much shorter distance | over 50% | shorter latencies | no reported adverse reactions or contraindications |
